Target: T1, mouse TLR7 (Mus musculus, UniProt P58681)
T1 sequence (P58681 27-1050): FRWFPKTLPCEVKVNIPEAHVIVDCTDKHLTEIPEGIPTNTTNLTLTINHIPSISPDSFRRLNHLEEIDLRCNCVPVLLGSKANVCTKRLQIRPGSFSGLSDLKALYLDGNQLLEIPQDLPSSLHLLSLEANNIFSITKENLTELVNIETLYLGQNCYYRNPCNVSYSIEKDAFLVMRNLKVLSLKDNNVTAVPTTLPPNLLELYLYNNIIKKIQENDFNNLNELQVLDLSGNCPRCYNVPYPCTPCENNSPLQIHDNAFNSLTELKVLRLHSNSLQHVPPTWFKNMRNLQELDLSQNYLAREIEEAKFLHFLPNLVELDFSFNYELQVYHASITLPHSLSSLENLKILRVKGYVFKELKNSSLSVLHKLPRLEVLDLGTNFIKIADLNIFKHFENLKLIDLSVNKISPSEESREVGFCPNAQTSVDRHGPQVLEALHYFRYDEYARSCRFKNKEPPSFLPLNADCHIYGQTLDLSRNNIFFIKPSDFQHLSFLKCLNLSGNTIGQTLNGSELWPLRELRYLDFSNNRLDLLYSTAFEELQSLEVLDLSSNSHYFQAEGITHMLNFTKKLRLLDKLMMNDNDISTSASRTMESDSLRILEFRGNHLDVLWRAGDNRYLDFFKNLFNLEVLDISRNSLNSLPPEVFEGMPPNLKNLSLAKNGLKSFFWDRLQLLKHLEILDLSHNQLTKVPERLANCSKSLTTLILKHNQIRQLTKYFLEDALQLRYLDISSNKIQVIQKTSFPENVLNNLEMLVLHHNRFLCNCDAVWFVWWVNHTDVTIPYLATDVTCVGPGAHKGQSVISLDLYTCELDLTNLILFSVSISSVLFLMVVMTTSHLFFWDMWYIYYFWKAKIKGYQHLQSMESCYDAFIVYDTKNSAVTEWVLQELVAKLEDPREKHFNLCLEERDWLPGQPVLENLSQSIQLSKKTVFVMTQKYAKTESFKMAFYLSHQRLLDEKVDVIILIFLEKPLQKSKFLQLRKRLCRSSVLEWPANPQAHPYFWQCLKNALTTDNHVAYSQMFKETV
Assay: Short-term in vivo (STIV) assay: oral dosing, R848 s.c., plasma IL-6
Design: female BALB/c mice (Jackson Labs, Bar Harbor, Me.) were dosed by oral gavage; tissue Jackson Labs; host or cells: living female BALB/c mice; plasma IL-6 after s.c. R848
Method in brief: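 Female BALB/c mice (6–8 weeks) dosed orally with compound in 0.5% aqueous methyl-cellulose at 33, 100 or 300 mg/kg; at various times afterwards given 15 ug R848 s.c. to stimulate TLR7. Plasma IL-6 measured by ELISA to gauge potency and duration of action.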

Structure (SMILES) | % Suppression vs. Vehicle (3 h, 33 mg/kg) [%] | % Suppression vs. Vehicle (6 h, 33 mg/kg) [%] | % Suppression vs. Vehicle (6 h, 100 mg/kg) [%] | % Suppression vs. Vehicle (6 h, 300 mg/kg) [%] | % Suppression vs. Vehicle (13 h, 100 mg/kg) [%] | % Suppression vs. Vehicle (19 h, 33 mg/kg) [%] | % Suppression vs. Vehicle (3 h, 100 mg/kg) [%] | % Suppression vs. Vehicle (3 h, 300 mg/kg) [%] | % Suppression vs. Vehicle (19 h, 100 mg/kg) [%] | % Suppression vs. Vehicle (19 h, 300 mg/kg) [%] | further results
C[C@@H]1CN(c2ccc(C#N)c3ncccc23)C[C@H](CO)O1 [ER-885493, 5-((2R,6R)-2-(hydroxymethyl)-6-methylmorpholino)quinoline-8-carbonitrile] |  |  |  |  |  |  |  |  |  |  | % Suppression vs. Vehicle (3 h, 22 mg/kg): 39%; % Suppression vs. Vehicle (3 h, 67 mg/kg): 86%; % Suppression vs. Vehicle (3 h, 200 mg/kg): 88%; % Suppression vs. Vehicle (5 h, 22 mg/kg): 26%; % Suppression vs. Vehicle (5 h, 67 mg/kg): 99%; % Suppression vs. Vehicle (5 h, 200 mg/kg): 94%; % Suppression vs. Vehicle (12 h, 400 mg/kg): 76%; % Suppression vs. Vehicle (18 h, 22 mg/kg): 0%; % Suppression vs. Vehicle (18 h, 67 mg/kg): 5%; % Suppression vs. Vehicle (18 h, 200 mg/kg): 29%
CC[C@H]1CN(C[C@H]2CN(c3ccc(C#N)c4ncccc34)C[C@@H](C)O2)CCN1 [ER-890963] | 90 | 98 | 99 | 100 | 80 | 45 |  |  |  |  | % Suppression vs. Vehicle (13 h, 33 mg/kg): 31%; % Suppression vs. Vehicle (13 h, 300 mg/kg): 100%; % Suppression vs. Vehicle (24 h, 100 mg/kg): 50%; % Suppression vs. Vehicle (24 h, 300 mg/kg): 100%
C[C@@H]1CN(c2ccc(C#N)c3ncccc23)C[C@H](CN2CCC(O)CC2)O1 [ER-886953] | 99 | 99 | 99 | 99 |  | 23 | 99 | 99 | 45 | 99 | 
CCCN1CCN(C[C@H]2CN(c3ccc(C#N)c4ncccc34)C[C@@H](C)O2)CC1 [ER-887724] | 99 | 99 | 99 | 99 |  | 83 | 99 | 99 | 91 | 99 | 
C[C@@H]1CN(c2ccc(C#N)c3ncccc23)C[C@H](C)O1 [ER-878952] |  |  |  |  |  |  |  |  |  |  | % Suppression vs. Vehicle (12 h, 200 mg/kg): 93%; % Suppression vs. Vehicle (12 h, 600 mg/kg): 95%; % Suppression vs. Vehicle (18 h, 200 mg/kg): 90%; % Suppression vs. Vehicle (18 h, 600 mg/kg): 96%
CC1CN(c2ccc(C#N)c3ncccc23)CC(CN2CCC(NC(=O)C(C)C)CC2)O1 (stereo not drawn) [ER-889745] |  | 94 | 84 |  | 99 | 0 | 93 |  | 52 |  | % Suppression vs. Vehicle (13 h, 33 mg/kg): 0%; % Suppression vs. Vehicle (13 h, 300 mg/kg): 95%; % Suppression vs. Vehicle (24 h, 33 mg/kg): 0%; % Suppression vs. Vehicle (24 h, 100 mg/kg): 64%; % Suppression vs. Vehicle (24 h, 300 mg/kg): 100%
C[C@@H]1CN(c2ccc(C#N)c3ncccc23)C[C@H](C(=O)N[C@H]2CNC[C@H]2F)O1.Cl [ER-899742, (2R,6R)-4-(8-cyanoquinolin-5-yl)-N-[(3S,4R)-4-fluoropyrrolidin-3-yl]-6-methylmorpholine-2-carboxamide hydrochloride] |  |  | 100 |  | 61 |  |  |  |  |  | short-term in vivo suppression of the TLR7 pathway (plasma IL-6) (33, 100 or 300 mg/kg oral, 6, 13 or 24 hours, FIG. 1): suppression of the TLR7 pathway; duration of full suppression of the R848/TLR7/IL-6 pathway in vivo (single oral dose 300 mg/kg): at least 24 hours
C[C@@H]1CN(c2ccc(C#N)c3ncccc23)C[C@H](CN2CCC(N3CCCCC3)CC2)O1 [ER-887927, 5-((2S,6R)-2-([1,4′-bipiperidin]-1′-ylmethyl)-6-methylmorpholino)quinoline-8-carbonitrile] |  | 100 | 100 | 100 |  | 98 |  |  | 100 | 100 | % Suppression vs. Vehicle (19 h, 1.22 mg/kg): 56%; % Suppression vs. Vehicle (19 h, 3.67 mg/kg): 70%; % Suppression vs. Vehicle (19 h, 11 mg/kg): 94%
CC1CN(c2ccc(C#N)c3ncccc23)CC(CN2CCCC2CO)O1 (stereo not drawn) [ER-886814] | 93 | 57 | 100 | 100 |  | 14 | 100 | 100 | 19 | 100 | 

Reference: USRE47193E1, “Selectively substituted quinoline compounds” (EISAI R&D MANAGEMENT CO., LTD., priority 2013, dated 2019)
